# In paper PMC11586995, “Screening and Characterization of Sialic Acid-Binding Variable Lymphocyte Receptors from Hagfish” (BioTech, 2024):
# Entries after “also recorded” stand apart in the source; their conditions may differ.
# Test system: ccombodies 2D8, 5G11, 6D2, and 4A1
# Assay: Competitive ELISA of monosaccharide haptens against ccombody binding to BSA-CC-Neu5Ac
# Parameters: species or system Eptatretus burgeri
# Settings: hapten 50 to 0.39 mM, all four candidates
# Method: ELISA was carried out according to the method of Lazarte et al., with some modifications. Screening for sialic acid-binding ccombodies was carried out by coating 100 μL of a 300 ng/well BSA-CC-Neu5Ac glycoconjugate onto high-binding 96-well ELISA plates (Corning, Glendale, AZ, USA), along with BSA only (without CC) as a negative control. Plates were left standing overnight at 4 °C, after which they were washed three times with 1X TBST (10 mM Tris-HCl, 150 mM NaCl, and 0.5% Tween) to remove unbound antigen. Plates were blocked for 30 min with blocking buffer comprising 5% skimmed milk in 1× TBST at room temperature, then washed once with 1X TBST. Ccombody supernatants from HEK293F cells were then added onto the plates, incubated for 1 h 30 min, followed by washing three times with 1X TBST. Antigen bound ccombodies were detected with mouse anti-VLRB antibody (11G5) in blocking buffer by incubation for 1 h, followed by washing three times to remove unbound 11G5. Finally, bound 11G5 antibodies were detected by incubating for 1 h with HRP-conjugated goat anti-mouse IgG (1:5000 v/v in blocking buffer), then washed four times. Binding was quantified by the addition of 100 μL developing buffer composed of 42 mM 3,3′,5,5′-tetramethylbenzidine and 1% H2O2, then color development for 30 min at room temperature. The reaction was stopped by adding 50 μL of 2 M H2SO4. The absorbance was then read at 450 nm using an xMark (BIO-RAD, Hercules, CA USA) microplate reader. Competitive inhibition was determined through ELISA as presented earlier, with some modifications. Optimal subsaturating dilutions of ccombody-culture supernatants were used based on the preliminary antibody titration data. Competitive inhibitors, two-fold serially diluted (50 to 0.39 mM), were mixed with a constant amount of ccombody supernatant diluted in 5% skimmed milk in 1X TBST, then incubated for 1 h at room temperature. Next, 100 μL of the mixture was subsequently transferred into another 96-well ELISA plate containing a constant amount of antigen (500 ng/well) which was pre-blocked with 5% skimmed milk in 1X TBST. Antigen-bound ccombodies were detected by 11G5 and HRP-conjugated goat anti-mouse IgG. The normalized and background-corrected OD450 values were plotted against the ligand concentration, and the half-maximal inhibitory concentration (IC50) was computed by curve fitting using the Four Parameter Logistic (4PL) Curve Calculator [27]. Values are expressed as the mean of three determinations.
row,Inhibition of ccombody binding by free hapten,SMILES
1,No significant inhibition,CC(=O)N[C@@H]1[C@@H](O)[C@H](O)[C@@H](CO)O[C@H]1O [N-acetylglucosamine]
2,No significant inhibition,OC[C@H]1OC(O)[C@H](O)[C@@H](O)[C@@H]1O (stereo partly drawn) [glucose]
3,No significant inhibition,CC(=O)N[C@@H]1[C@@H](O)[C@@H](O)[C@@H](CO)O[C@@H]1O [N-acetylgalactosamine]

# The remaining lines, values behind:
row,SMILES,Inhibition of ccombody binding by free hapten
1,OC[C@H]1OC(O)[C@@H](O)[C@@H](O)[C@@H]1O (stereo partly drawn) [mannose],No significant inhibition
2,"CC(=O)N[C@H]1[C@H]([C@H](O)[C@H](O)CO)OC(O)(C(=O)O)C[C@@H]1O (stereo partly drawn) [Neu5Ac, N-acetylneuraminic acid]",strong inhibition; also recorded: strong inhibitory effects
3,O=C[C@H](O)[C@@H](O)[C@@H](O)[C@H](O)CO [galactose],No significant inhibition
